The values that follow come from patent US20250332139A1, “PS[…] AND THEIR USE FOR TREATING […] AND NE[…] DISORDERS” (Transcend Therapeutics, Inc., priority 2021, published 2025).

Each structure is given as a SMILES string. Where two headings read alike, the source gives them in different places.

One assay relates to Sprague Dawley rats. The settings on record: cited from earlier work.
Assay [1] deals with norepinephrine transporter (NET) (Rattus norvegicus, UniProt Q63380). In words: Competitive radioligand binding, [3H]nisoxetine, rat brain lysates. The protocol: (§1) Radioligands used were: [^3H] Citalopram (PerkinElmer NET1039250UC); [^3H] Nisoxetine (PerkinElmer NET1084250UC); [^3H] WIN35428 (PerkinElmer NET1033250UC). […] Rat brains were dissected and tissue was homogenized in cold lysis buffer, centrifged at 100×g for 2 min and the supernatant was placed in a fresh tube. Supernatant was centrifuged at 13,000×g for 10 min at 4° C. to re-pellet the cell lysate. The pellet was resuspended in fresh wash buffer (50 mM Tris-HCl; 5 mM MgCl2; 5 mM EDTA) and centrifuged a third time. The pellet was then resuspended in wash buffer containing 10% sucrose as a cryoprotectant, divided into aliquots (0.3 mL) and stored at −80° C. A sample of the homogenate was analyzed for protein content using the SIGMA® BCA assay. On the day of the assay, the membrane preparation was thawed, and the pellet resuspended in final assay buffer. […] To each well was added 150 μL membranes, 50 μL of non-specific compound or buffer and 50 μL radioligand solution in buffer. […] Ki was subsequently calculated using the Cheng-Prusoff equation.

In assay [2] the target is T1, dopamine transporter (DAT) (Rattus norvegicus, UniProt P23977).
T1 construct: from tissue; synaptosomes for uptake and release
Put plainly: Competitive radioligand binding, [3H]WIN35428, rat brain lysates. The protocol: as §1

Assay [3] has as its target T2, serotonin transporter (SERT) (Rattus norvegicus, UniProt P31652).
T2 construct: from tissue; synaptosomes for uptake and release
Put plainly: Competitive radioligand binding, [3H]citalopram, rat brain lysates. The protocol: as §1

The test system of the next assay is C57BL/6J mice. The settings on record: MDMA 7.5 mg/kg 30 minutes prior to extinction training (Young 2015); cited from earlier work.
For assay [4], the system named is myelin basic protein (MBP) in the amygdala. In words: Immunohistochemistry of myelin basic protein. It counts as in vivo, rat. To be noted: 10 mg/kg IP, single dose, 24 h. The protocol: Immunohistochemistry: The in-life portion of the study was conducted at WuXi Apptec (Cranbury, NJ). Sectioning and staining of brains took place at Neuroscience Associates (NSA, Knoxville, TN). […] Brains were post-fixed in PFA before shipment to NSA for processing and staining. Hemisected brains were mounted, sectioned and stained using standard protocols with myelin-basic protein primary antibody (MBP SMI-99, 1:5000, Biolegend, San Diego, CA) and anti-mouse biotinylated secondary antibody (BA-2001, Vector Laboratories, Newark, CA). Slides were imaged using a Huron Digital Pathology TissueScope LE120 whole slide scanning system. 20× objective was used with a 0.4 μm/pixel resolution.

Assay [5] concerns the target T3, Human serotonin 5HT2B receptor (Homo sapiens, UniProt P41595).
T3 construct: host or cells: receptor-expressing membranes
In words: 5HT2B competitive radioligand binding. To be noted: ratio of Ki values. The protocol:
Human serotonin 5HT2B receptor membrane preparations were divided into aliquots. On the day of the assay, membranes were diluted at 1:200 in incubation buffer. […] To each well was added 150 μL membrane preparation, 50 μL test compound, non-specific compound, or buffer alone, as well as 50 μL radioligand. The plate was incubated at 35° C. for 90 minutes with gentle agitation. […] For each concentration of drug, non-specific binding was subtracted from total binding to give specific binding. […] Ki was subsequently calculated using the ChengPrusoff equation.

The term Ki denotes the dissociation constant of the complex between target and ligand, obtained from inhibition or displacement. The low end stands for tighter binding, the high end for weaker binding.

Sequence of norepinephrine transporter (NET) (Q63380 1-617): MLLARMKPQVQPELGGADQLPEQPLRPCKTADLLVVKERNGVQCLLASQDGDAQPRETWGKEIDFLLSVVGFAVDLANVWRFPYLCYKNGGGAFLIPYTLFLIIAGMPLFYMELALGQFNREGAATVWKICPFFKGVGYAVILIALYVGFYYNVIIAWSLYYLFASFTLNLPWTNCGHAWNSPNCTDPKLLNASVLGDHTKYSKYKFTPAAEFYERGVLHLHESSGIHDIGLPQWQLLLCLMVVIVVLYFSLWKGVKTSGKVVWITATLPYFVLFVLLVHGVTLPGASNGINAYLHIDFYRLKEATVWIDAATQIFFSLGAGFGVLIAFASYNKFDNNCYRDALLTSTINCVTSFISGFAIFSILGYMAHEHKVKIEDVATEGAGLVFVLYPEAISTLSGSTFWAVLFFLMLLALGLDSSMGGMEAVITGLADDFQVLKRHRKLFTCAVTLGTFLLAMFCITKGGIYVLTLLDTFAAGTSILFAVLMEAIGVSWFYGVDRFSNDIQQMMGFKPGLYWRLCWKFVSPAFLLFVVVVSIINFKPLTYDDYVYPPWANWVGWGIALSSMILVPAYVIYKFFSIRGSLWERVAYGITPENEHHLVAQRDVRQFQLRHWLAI
T1 sequence (P23977 whole entry): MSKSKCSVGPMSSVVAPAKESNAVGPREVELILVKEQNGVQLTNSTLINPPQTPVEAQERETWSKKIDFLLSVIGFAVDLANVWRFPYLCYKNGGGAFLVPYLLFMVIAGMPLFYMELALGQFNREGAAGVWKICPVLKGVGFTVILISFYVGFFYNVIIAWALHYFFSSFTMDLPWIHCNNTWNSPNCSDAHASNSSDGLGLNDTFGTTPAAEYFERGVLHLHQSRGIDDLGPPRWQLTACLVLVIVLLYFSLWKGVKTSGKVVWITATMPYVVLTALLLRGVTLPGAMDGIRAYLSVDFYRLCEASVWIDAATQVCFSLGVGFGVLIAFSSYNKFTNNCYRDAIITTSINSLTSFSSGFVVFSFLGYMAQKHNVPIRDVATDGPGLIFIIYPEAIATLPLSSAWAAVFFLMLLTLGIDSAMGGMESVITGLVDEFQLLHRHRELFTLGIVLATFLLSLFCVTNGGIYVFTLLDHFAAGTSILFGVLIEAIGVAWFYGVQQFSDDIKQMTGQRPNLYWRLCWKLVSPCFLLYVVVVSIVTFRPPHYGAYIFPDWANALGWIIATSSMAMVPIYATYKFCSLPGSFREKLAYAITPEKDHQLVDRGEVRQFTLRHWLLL
T2 sequence (P31652 whole entry): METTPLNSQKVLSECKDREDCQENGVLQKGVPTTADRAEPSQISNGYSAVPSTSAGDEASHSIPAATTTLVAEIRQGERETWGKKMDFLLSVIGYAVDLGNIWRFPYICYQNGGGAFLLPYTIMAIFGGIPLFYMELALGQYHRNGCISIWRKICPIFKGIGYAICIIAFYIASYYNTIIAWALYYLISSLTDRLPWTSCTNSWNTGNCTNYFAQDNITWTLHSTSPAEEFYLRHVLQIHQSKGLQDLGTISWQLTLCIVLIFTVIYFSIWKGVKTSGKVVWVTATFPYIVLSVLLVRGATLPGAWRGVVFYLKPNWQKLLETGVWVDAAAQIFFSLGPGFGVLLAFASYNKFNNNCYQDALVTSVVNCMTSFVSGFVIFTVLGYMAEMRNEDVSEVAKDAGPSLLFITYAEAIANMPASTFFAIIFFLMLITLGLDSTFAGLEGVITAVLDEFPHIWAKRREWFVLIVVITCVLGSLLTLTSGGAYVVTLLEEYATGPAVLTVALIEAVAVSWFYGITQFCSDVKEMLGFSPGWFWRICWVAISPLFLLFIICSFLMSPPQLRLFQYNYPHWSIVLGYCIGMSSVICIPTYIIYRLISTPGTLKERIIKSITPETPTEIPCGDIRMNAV
T3 sequence (P41595 whole entry): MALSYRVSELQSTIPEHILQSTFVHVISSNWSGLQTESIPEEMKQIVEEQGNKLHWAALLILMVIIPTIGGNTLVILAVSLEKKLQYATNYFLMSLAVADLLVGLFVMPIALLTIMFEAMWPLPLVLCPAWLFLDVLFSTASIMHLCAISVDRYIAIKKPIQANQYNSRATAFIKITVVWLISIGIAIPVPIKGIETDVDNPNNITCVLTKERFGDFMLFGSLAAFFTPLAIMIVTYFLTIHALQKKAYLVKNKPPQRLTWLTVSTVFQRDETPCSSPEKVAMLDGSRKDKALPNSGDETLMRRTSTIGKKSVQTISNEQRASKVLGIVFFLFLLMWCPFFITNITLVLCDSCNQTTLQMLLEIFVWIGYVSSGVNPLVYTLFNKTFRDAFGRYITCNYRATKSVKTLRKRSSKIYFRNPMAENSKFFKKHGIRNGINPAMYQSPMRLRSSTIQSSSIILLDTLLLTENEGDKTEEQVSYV

With `CNC(C)Cc1ccc2c(c1)OCO2` (racemic) [MDMA, 3,4-Methylenedioxymethamphetamine], the reduction in immobility is 45% in the assay with Sprague Dawley rats (MDMA 5 mg/kg, Flinders Sensitive Line rats (Majumder 2011)); 45% in the assay on Sprague Dawley rats (MDMA 5 mg/kg, Sprague Dawley rats (Majumder 2011)); 93% in the assay on Sprague Dawley rats (MDMA 10 mg/kg, Flinders Sensitive Line rats (Majumder 2011)); 78% with Sprague Dawley rats (MDMA 10 mg/kg, Sprague Dawley rats (Majumder 2011)). The Ki in assay [1] stood at 790 nM; in assay [2], 5110 nM; in assay [3] it was 2620 nM. For the same compound, the “reduced freezing (extinction recall) vs saline” value with C57BL/6J mice is 35%. Further, in assay [4], the “MBP level in basolateral and central nuclei of the amygdala vs vehicle” value is “significant reduction in MBP”. The “times greater affinity for the 5HT2B receptor compared with methylone” value in assay [5] is recorded as 7.5 times.
